# Measured values reported in US10722575B2, “Use of 1,3-diphenylprop-2-en-1-one derivatives for treating liver disorders” (GENFIT, priority 2009, dated 2020).
# What was measured:
# [1] = system: patients suffering from atherogenic dyslipidaemia and abdominal obesity; assay: First pilot double-blind placebo-controlled randomized study, Cpd 29 80 mg/day, 28 days; type: in vivo, human; conditions: 80 mg/day oral
# Method: (§1) 1-[4-methylthiophenyl]-3-[3,5-dimethyl-4-carboxydimethylmethyloxyphenyl]prop-2-en-1-one (Cpd 29 of WO 2004/005233) has been formulated as hard shell capsules containing 5, 10 or 20 mg of the compound. The compound (80 mg) was administered orally once daily for 28 days. The study has been performed in two parallel groups in double-blind conditions: placebo or Cpd 29 of WO 2004/005233.
# (§2) The tolerability and safety of once-a-day administrations, as well as the efficacy in improving plasma lipids and glucose homeostasis compared with placebo, were evaluated in two pilot trials using relevant biochemical parameters. The data were used to calculate the percentage of change due to the compound when compared to the placebo after 28 days of treatment.
# (§3) A first pilot, double-blind, placebo controlled, randomized study has been performed in patients suffering from atherogenic dyslipidaemia and abdominal obesity for assessing the tolerability and safety of once-a-day administrations of oral doses of Cpd 29 of WO 2004/005233 (at the dose of 80 mg/day), as well as the efficacy on plasma triglycerides and HDL-cholesterol (primary objectives).
# [2] = system: hApoE2 KI/PPARalpha KO mice; assay: hApoE2 KI/PPARalpha KO mice on Western diet, 2 weeks, histological scores of liver steatosis and intralobular inflammation; type: in vivo; conditions: 30 mg/kg/day
# Method: Animals were fed a Western diet (20% saturated fat and 0.2% cholesterol, Harlan Teklad TD88137) during 2 weeks in the first study, that involved the daily administration of Cpd 29 (at 30 mg/kg/day by oral gavage), and during 6 weeks in the second study, that involved the daily administration of Compound 1 of WO 2007147879 (Cpd1, at 30 mg/kg/day by oral gavage). Control animals were treated with vehicle only (Carboxymethlycellulose 1%+Tween-80 0.1%). Animals had access to food and water ad libitum.
# At the end of the studies, the animals were weighed and sacrificed under anesthesia. Blood was collected from the retro-orbital sinus; plasma was obtained by centrifugation (4 000 rpm, at 4° C. for 15 min) and subsequently frozen and stored at −20° C. Tissues and livers were isolated and snap-frozen in liquid nitrogen and stored at −80° C. for subsequent analysis (gene expression and biochemistry) or fixed in 4% paraformaldehyde for histology.
# Formalin-fixed liver tissue was processed, and 5-μm-thick paraffin sections were stained with Hematoxylin and Eosin. The histological analysis of stained liver sections was carried out in blind conditions to quantify liver steatosis and liver intralobular inflammation. Liver steatosis was scored from 0 to 3 as follows: 0 (very slightly affected), 1 (slightly affected), 2 (moderately affected), 3 (highly affected). Liver intralobular inflammation was also scored depending on the number of inflammatory foci counted by field of observation as follows: 0 (<1 focus/field), 1 (1 to 2 foci/field), 2 (2 to 4 foci/field) 3 (more than 4 foci/field).
# Exemplary compounds of the General Formula (I) were tested in vivo in a high fat diet mice model. hApoE2 KI and hApoE2 KI/PPARalpha KO (“humanized” ApoE2 knock-in mice deficient for the mPPARalpha gene) were fed a Western diet and daily treated with the Cpd 29 at 30 mg/kg/day during 2 weeks. At the end of the protocol, liver steatosis and intra-lobular inflammation were evaluated in the control and treated mice by means of histological analysis and specific scores.
# [3] = system: patients suffering from impaired fasting glucose, impaired glucose tolerance and abdominal obesity; assay: Second pilot double-blind placebo-controlled randomized study, Cpd 29 80 mg/day, 28 days; type: in vivo, human; conditions: 80 mg/day oral
# Method: as §1, §2
# as §3, with “second” for “first”, “impaired fasting glucose, impaired glucose tolerance” for “atherogenic dyslipidaemia”, “glucose” for “plasma triglycerides”, “lipid metabolism.” for “HDL-cholesterol (primary objectives).”
# [4] = relative to the placebo group, p<0.01
# [5] = hApoE2 KI/PPARalpha KO mice, Western diet
substance,measurement,setting,value
"1-[4-methylthiophenyl]-3-[3,5-dimethyl-4-carboxydimethylmethyloxyphenyl]prop-2-en-1-one [Cpd 29]",effect on Homocystein (cardiovascular risk factor),[1],lack of effect
same,reduction of Gamma Glutamyl transpeptidase level,[1]; p<0.001,23%
same,liver acute phase inflammation marker fibrinogen,[1]; p<0.01,reduction
same,liver acute phase inflammation marker haptoglobin,[1]; p<0.01,reduction
same,reduction of Alanine aminotransferase level,[1]; p<0.01,13%
same,increase in good cholesterol (HDL-C) level,[1]; [4],9%
same,reduction of plasma triglycerides,[1]; [4],21%
same,development of liver inflammation induced by the diet,[2]; [5],inhibits
same,development of liver steatosis induced by the diet,[2]; [5],inhibits
same,Liver Inflammation (score) 0,"[2]; share of group with score 0 (<1 focus/field), hApoE2 KI/PPARalpha KO",67%
same,Liver Steatosis (score) 0,"[2]; share of group with score 0 (very slightly affected), hApoE2 KI/PPARalpha KO",0%
same,Liver Inflammation (score) 1,"[2]; share of group with score 1 (1 to 2 foci/field), hApoE2 KI/PPARalpha KO",17%
same,Liver Steatosis (score) 1,"[2]; share of group with score 1 (slightly affected), hApoE2 KI/PPARalpha KO",33%
same,Liver Inflammation (score) 2,"[2]; share of group with score 2 (2 to 4 foci/field), hApoE2 KI/PPARalpha KO",17%
same,Liver Steatosis (score) 2,"[2]; share of group with score 2 (moderately affected), hApoE2 KI/PPARalpha KO",50%
same,Liver Steatosis (score) 3,"[2]; share of group with score 3 (highly affected), hApoE2 KI/PPARalpha KO",17%
same,Liver Inflammation (score) 3,"[2]; share of group with score 3 (more than 4 foci/field), hApoE2 KI/PPARalpha KO",0%
same,LDL-C,[3],reduced
same,"plasma triglycerides, change relative to placebo",[3]; p<0.001,−25%
same,"HDL-C, change relative to placebo",[3]; p<0.01,+9%
same,"fasting insulinemia, change relative to placebo",[3]; p<0.01,−25%
same,"insulin resistance index, HOMA-IR, change relative to placebo",[3]; p<0.01,−31%
same,liver acute phase inflammation marker haptoglobin,[3]; p<0.01,reduction
same,reduction of Gamma Glutamyl transpeptidase level,[3]; p<0.01,15%
same,"fasting plasma glucose, change relative to placebo",[3]; p<0.05,−5%
